# Reference: the kinase profiling compilation of Christmann-Franck et al. (2016)
# Key:
# Experiment in all cases: radiometric filter-binding kinase assay, Kinase HotSpot
# Details in all cases: compound 0.5 µM; ATP 10 µM
# MAP3K7 TAB1 (human) = MAP3K7 TAB1 (human) (UniProt O43318+Q15750)
# MAP4K4 (human) = MAP4K4 (human) (UniProt O95819)
# NUAK2 (human) = NUAK2 (human) (UniProt Q9H093)
# IKBKE (human) = IKBKE (human) (UniProt Q14164)
# MAP4K5 (human) = MAP4K5 (human) (UniProt Q9Y4K4)
# PDPK1 (human) = PDPK1 (human) (UniProt O15530)
# GSK3B (human) = GSK3B (human) (UniProt P49841)
# Sequence of GSK3B (human) (P49841 whole entry, looked up): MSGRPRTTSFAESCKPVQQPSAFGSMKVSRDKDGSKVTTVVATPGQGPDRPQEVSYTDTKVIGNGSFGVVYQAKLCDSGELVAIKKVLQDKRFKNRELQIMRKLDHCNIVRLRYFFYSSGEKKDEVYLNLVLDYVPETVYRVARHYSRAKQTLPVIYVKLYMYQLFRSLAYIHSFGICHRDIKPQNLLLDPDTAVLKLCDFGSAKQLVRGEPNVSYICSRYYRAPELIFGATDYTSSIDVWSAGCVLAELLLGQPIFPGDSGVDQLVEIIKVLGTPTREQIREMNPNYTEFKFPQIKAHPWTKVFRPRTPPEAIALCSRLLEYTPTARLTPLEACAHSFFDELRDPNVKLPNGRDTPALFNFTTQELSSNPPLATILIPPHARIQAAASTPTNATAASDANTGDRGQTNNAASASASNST
# CAMK1 (human) = CAMK1 (human) (UniProt Q14012)
# Sequence of CAMK1 (human) (Q14012 whole entry, looked up): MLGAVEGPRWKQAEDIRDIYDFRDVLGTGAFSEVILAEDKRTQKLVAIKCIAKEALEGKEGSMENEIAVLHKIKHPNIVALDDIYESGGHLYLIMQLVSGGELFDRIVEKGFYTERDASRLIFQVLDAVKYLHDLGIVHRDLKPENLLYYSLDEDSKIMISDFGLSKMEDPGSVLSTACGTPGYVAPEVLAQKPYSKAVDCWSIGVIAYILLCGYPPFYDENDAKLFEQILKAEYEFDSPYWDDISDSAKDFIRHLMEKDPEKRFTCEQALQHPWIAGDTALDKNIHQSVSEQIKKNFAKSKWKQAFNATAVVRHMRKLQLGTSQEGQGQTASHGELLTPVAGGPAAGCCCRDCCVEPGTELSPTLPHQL
# CSNK1D (human) = CSNK1D (human) (UniProt P48730)
# CDK1 CCNA2 (human) = CDK1 CCNA2 (human) (UniProt P06493+P20248)
# PRKACA (human) = PRKACA (human) (UniProt P17612)
# TGFBR2 (human) = TGFBR2 (human) (UniProt P37173)
# Sequence of TGFBR2 (human) (P37173 whole entry, looked up): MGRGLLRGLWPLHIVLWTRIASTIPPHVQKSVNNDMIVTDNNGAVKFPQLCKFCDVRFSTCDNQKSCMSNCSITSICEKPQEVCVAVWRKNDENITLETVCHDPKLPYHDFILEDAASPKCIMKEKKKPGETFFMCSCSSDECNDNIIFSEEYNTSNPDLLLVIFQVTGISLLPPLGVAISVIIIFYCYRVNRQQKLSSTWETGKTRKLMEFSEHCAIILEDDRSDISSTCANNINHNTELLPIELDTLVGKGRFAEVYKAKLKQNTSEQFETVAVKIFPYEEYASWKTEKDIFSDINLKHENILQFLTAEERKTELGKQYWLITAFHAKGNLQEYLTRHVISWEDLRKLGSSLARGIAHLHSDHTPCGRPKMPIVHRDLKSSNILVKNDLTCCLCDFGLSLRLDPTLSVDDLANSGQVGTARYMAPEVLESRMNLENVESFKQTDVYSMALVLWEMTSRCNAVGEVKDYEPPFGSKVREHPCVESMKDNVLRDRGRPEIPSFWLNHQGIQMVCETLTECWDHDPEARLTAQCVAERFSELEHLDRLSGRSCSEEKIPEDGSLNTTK
# MAPK3 (human) = MAPK3 (human) (UniProt P27361)
# CHUK (human) = CHUK (human) (UniProt O15111)
# HIPK3 (human) = HIPK3 (human) (UniProt Q9H422)
# PTK6 (human) = PTK6 (human) (UniProt Q13882)
# PTK2B (human) = PTK2B (human) (UniProt Q14289)
# CLK3 (human) = CLK3 (human) (UniProt P49761)
# Sequence of CLK3 (human) (P49761 whole entry, looked up): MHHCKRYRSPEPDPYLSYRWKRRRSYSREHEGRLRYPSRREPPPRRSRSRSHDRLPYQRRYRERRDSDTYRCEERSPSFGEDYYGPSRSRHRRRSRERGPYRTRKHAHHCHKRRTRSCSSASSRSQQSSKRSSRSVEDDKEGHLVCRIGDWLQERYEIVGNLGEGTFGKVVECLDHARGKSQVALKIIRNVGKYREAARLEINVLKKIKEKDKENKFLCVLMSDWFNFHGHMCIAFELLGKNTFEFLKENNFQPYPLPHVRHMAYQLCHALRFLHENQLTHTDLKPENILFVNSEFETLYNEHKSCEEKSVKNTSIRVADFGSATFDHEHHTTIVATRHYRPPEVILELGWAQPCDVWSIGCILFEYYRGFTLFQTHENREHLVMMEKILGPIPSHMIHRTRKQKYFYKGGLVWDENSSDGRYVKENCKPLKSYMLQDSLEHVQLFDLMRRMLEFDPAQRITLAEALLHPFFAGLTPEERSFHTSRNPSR
# PRKCB2 (human) = PRKCB2 (human) (UniProt P05771)
# PRKCH (human) = PRKCH (human) (UniProt P24723)
# SRPK2 (human) = SRPK2 (human) (UniProt P78362)
# Sequence of SRPK2 (human) (P78362 whole entry, looked up): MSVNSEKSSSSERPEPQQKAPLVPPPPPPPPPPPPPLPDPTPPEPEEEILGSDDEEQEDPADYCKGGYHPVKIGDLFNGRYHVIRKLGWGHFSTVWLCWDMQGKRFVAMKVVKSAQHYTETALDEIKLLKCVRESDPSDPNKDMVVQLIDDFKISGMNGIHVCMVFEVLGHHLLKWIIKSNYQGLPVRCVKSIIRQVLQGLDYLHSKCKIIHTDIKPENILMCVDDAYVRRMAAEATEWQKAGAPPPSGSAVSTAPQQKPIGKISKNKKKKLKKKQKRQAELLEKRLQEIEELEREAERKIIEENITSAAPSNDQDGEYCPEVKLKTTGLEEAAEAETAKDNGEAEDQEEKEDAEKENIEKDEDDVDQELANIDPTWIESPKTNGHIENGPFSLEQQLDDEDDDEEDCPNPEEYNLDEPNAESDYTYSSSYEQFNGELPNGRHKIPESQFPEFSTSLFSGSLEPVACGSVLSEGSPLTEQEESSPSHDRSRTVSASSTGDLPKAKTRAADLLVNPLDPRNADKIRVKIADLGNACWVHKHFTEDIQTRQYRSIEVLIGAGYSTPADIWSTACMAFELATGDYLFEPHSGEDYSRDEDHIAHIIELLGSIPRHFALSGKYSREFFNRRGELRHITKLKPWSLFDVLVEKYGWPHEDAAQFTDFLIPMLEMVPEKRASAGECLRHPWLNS
# NEK9 (human) = NEK9 (human) (UniProt Q8TD19)
# EPHA3 (human) = EPHA3 (human) (UniProt P29320)
# CDK6 CCND3 (human) = CDK6 CCND3 (human) (UniProt P30281+Q00534)
# Sequence of CDK6 CCND3 (human) (P30281 whole entry, looked up): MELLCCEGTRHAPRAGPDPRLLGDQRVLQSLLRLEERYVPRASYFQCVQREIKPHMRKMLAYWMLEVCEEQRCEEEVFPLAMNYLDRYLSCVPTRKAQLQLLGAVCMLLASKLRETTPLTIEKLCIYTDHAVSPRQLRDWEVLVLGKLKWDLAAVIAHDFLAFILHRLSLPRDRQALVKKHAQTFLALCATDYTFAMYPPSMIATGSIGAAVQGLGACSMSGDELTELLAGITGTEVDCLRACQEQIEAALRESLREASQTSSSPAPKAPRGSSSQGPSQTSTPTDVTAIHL
# Sequence of CDK6 CCND3 (human) (Q00534 whole entry, looked up): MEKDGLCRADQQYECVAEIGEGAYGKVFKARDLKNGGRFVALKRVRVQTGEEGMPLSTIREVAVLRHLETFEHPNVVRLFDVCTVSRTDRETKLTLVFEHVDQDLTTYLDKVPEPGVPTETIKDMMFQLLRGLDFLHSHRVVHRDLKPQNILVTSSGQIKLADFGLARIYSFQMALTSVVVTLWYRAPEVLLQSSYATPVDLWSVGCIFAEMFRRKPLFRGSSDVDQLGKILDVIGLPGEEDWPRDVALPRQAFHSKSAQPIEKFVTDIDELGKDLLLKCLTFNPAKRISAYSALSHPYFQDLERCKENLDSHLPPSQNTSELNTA
# DAPK3 (human) = DAPK3 (human) (UniProt O43293)
# IKBKB (human) = IKBKB (human) (UniProt O14920)
# DMPK (human) = DMPK (human) (UniProt Q09013)
# SYK (human) = SYK (human) (UniProt P43405)
# MAPK11 (human) = MAPK11 (human) (UniProt Q15759)
# Sequence of MAPK11 (human) (Q15759 whole entry, looked up): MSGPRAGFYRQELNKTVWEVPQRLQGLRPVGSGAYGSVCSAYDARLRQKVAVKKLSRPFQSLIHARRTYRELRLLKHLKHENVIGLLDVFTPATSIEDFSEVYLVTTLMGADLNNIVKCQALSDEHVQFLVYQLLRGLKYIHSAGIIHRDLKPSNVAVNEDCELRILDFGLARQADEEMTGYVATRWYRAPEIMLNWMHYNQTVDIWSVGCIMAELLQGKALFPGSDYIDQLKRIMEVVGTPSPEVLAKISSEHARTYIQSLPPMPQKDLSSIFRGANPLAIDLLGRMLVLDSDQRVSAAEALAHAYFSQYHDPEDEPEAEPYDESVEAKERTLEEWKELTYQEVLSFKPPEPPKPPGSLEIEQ
# MAP3K8 (human) = MAP3K8 (human) (UniProt P41279)
# Sequence of MAP3K8 (human) (P41279 whole entry, looked up): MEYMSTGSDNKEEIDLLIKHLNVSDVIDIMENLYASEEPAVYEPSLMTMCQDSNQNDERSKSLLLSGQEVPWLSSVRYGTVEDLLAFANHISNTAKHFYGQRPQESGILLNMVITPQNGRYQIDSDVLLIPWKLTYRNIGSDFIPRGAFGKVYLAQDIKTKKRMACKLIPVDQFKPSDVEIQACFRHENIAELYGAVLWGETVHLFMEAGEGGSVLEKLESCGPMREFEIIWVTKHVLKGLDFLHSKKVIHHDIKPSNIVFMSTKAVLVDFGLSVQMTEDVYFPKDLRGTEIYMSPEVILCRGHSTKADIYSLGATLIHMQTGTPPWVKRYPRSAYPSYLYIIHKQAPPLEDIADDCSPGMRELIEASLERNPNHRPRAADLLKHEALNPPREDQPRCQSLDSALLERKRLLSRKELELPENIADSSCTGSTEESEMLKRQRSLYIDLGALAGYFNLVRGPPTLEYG
# RAF1 (human) = RAF1 (human) (UniProt P04049)
# Sequence of RAF1 (human) (P04049 whole entry, looked up): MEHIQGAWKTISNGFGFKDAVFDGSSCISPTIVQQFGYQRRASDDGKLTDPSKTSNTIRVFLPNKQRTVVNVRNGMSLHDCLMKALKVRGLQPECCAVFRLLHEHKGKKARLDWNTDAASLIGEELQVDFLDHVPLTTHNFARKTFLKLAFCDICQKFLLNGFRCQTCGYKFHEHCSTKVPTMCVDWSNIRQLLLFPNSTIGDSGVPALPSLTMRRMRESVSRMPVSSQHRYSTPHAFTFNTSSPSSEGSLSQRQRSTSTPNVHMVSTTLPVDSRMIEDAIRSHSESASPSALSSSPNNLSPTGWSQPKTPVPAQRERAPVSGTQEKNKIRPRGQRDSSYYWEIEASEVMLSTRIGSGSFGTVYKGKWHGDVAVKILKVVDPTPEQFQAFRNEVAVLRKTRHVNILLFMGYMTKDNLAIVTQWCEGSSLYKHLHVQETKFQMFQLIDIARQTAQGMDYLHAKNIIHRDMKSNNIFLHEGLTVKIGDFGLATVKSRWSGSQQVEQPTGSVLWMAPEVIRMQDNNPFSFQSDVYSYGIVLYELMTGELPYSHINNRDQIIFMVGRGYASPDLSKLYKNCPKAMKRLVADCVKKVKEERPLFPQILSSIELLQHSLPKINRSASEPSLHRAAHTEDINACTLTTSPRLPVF
# BRAF (human) = BRAF (human) (UniProt P15056)
# MAPK10 (human) = MAPK10 (human) (UniProt P53779)
# MAPKAPK3 (human) = MAPKAPK3 (human) (UniProt Q16644)
# WNK3 (human) = WNK3 (human) (UniProt Q9BYP7)
# STK24 (human) = STK24 (human) (UniProt Q9Y6E0)
# PAK1 (human) = PAK1 (human) (UniProt Q13153)
# RPS6KA6 KD1 KD2 (human) = RPS6KA6 KD1 KD2 (human) (UniProt Q9UK32)
Structure (SMILES),residual activity (MAP3K7 TAB1 (human)) [%],residual activity (MAP4K4 (human)) [%],residual activity (NUAK2 (human)) [%],residual activity (IKBKE (human)) [%],residual activity (MAP4K5 (human)) [%],residual activity (PDPK1 (human)) [%],residual activity (GSK3B (human)) [%],residual activity (CAMK1 (human)) [%],residual activity (CSNK1D (human)) [%],residual activity (CDK1 CCNA2 (human)) [%],residual activity (PRKACA (human)) [%],residual activity (TGFBR2 (human)) [%],residual activity (MAPK3 (human)) [%],residual activity (CHUK (human)) [%],residual activity (HIPK3 (human)) [%],residual activity (PTK6 (human)) [%],residual activity (PTK2B (human)) [%],residual activity (CLK3 (human)) [%],residual activity (PRKCB2 (human)) [%],residual activity (PRKCH (human)) [%],other results
COc1ccc(Cl)cc1NC(=O)Nc1cc(C)nc2ccccc12,101,84.7,100,107,100,83.9,91.6,91.7,98.7,104,101,111,94.6,100,99.1,101,88.9,97.5,109,88.6,residual activity (SRPK2 (human)): 94.9%; residual activity (NEK9 (human)): 104%; residual activity (EPHA3 (human)): 99.1%; residual activity (CDK6 CCND3 (human)): 99%; residual activity (DAPK3 (human)): 100%; residual activity (IKBKB (human)): 94.3%; residual activity (DMPK (human)): 103%; residual activity (SYK (human)): 88.2%; residual activity (MAPK11 (human)): 92%; residual activity (MAP3K8 (human)): 99.5%; residual activity (RAF1 (human)): 94.8%; residual activity (BRAF (human)): 98.9%; residual activity (MAPK10 (human)): 86%; residual activity (MAPKAPK3 (human)): 101%; residual activity (WNK3 (human)): 99.9%; residual activity (STK24 (human)): 81.6%; residual activity (PAK1 (human)): 94.8%
COc1ccc2c(c1)c(C1=C(c3c[nH]c4ccccc34)C(=O)NC1=O)cn2CCCN(C)C,102,37.8,81,100,27.7,76.7,32,90.2,92,95.7,77.9,120,93,96.5,74.1,92,104,43.6,14.2,6.85,residual activity (RPS6KA6 KD1 KD2 (human)): 4.52%; residual activity (SRPK2 (human)): 88%; residual activity (NEK9 (human)): 90.3%; residual activity (EPHA3 (human)): 94.1%; residual activity (CDK6 CCND3 (human)): 85%; residual activity (DAPK3 (human)): 75.5%; residual activity (IKBKB (human)): 99.6%; residual activity (DMPK (human)): 97.7%; residual activity (SYK (human)): 68.5%; residual activity (MAPK11 (human)): 96.7%; residual activity (MAP3K8 (human)): 93.8%; residual activity (RAF1 (human)): 99.3%; residual activity (MAPK10 (human)): 88.8%; residual activity (MAPKAPK3 (human)): 92.3%; residual activity (WNK3 (human)): 92%; residual activity (STK24 (human)): 36.6%; residual activity (PAK1 (human)): 87.4%
CC(C)(C)c1cc(C=C(C#N)C#N)cc(Br)c1O,87.9,96.2,99.6,86.8,95.8,102,107,97.5,85.5,87.8,102,93.8,105,89.7,98.2,91.4,99.3,122,129,100,residual activity (RPS6KA6 KD1 KD2 (human)): 101%; residual activity (SRPK2 (human)): 109%; residual activity (NEK9 (human)): 103%; residual activity (EPHA3 (human)): 102%; residual activity (CDK6 CCND3 (human)): 89.3%; residual activity (DAPK3 (human)): 96.4%; residual activity (IKBKB (human)): 95.7%; residual activity (DMPK (human)): 96.9%; residual activity (SYK (human)): 97.6%; residual activity (MAPK11 (human)): 100%; residual activity (MAP3K8 (human)): 104%; residual activity (RAF1 (human)): 104%; residual activity (MAPK10 (human)): 92.5%; residual activity (MAPKAPK3 (human)): 103%; residual activity (WNK3 (human)): 106%; residual activity (STK24 (human)): 96.3%; residual activity (PAK1 (human)): 89.9%
NC(=O)c1cccc(-c2cc(Nc3ccc(OC(F)(F)F)cc3)ncn2)c1,99.1,104,87.8,107,97.8,98.3,110,97.5,99.1,103,94.2,94.9,94.5,95,104,94.5,94.6,104,122,98.4,residual activity (RPS6KA6 KD1 KD2 (human)): 94.2%; residual activity (SRPK2 (human)): 105%; residual activity (NEK9 (human)): 93.8%; residual activity (EPHA3 (human)): 97.5%; residual activity (CDK6 CCND3 (human)): 96.2%; residual activity (DAPK3 (human)): 99.8%; residual activity (IKBKB (human)): 98.6%; residual activity (DMPK (human)): 96.1%; residual activity (SYK (human)): 99.9%; residual activity (MAPK11 (human)): 105%; residual activity (MAP3K8 (human)): 96.8%; residual activity (RAF1 (human)): 105%; residual activity (MAPK10 (human)): 104%; residual activity (MAPKAPK3 (human)): 98%; residual activity (WNK3 (human)): 105%; residual activity (STK24 (human)): 89.5%; residual activity (PAK1 (human)): 93.3%
